Test results from PubChem BioAssay (NCI).
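Following 48 hours of exposure in 96-well plates, responses at five concentrations were used to interpolate endpoints linearly. TGI denotes the concentration required for complete inhibition of growth.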

Tests used:
Assay in all cases: growth of human tumour cells (NCI), 48 h
[1] = tested on: DMS 114 small cell lung
[2] = tested on: SNB-19 CNS
[3] = tested on: RPMI-8226 leukemia
[4] = tested on: K-562 leukemia
[5] = tested on: MOLT-4 leukemia
[6] = tested on: A498 renal
[7] = tested on: SK-MEL-5 melanoma
[8] = tested on: HOP-92 NSCLC
[9] = tested on: HCT-116 colon
[10] = tested on: NCI-H522 lung
[11] = tested on: HCC-2998 colon
[12] = tested on: OVCAR-5 ovarian
[13] = tested on: EKVX NSCLC
[14] = tested on: UACC-257 melanoma
[15] = tested on: M19-MEL melanoma
[16] = tested on: SK-MEL-28 melanoma
[17] = tested on: U251 CNS
[18] = tested on: SK-MEL-2 melanoma
[19] = tested on: M14 melanoma
[20] = tested on: NCI-H460 lung
[21] = tested on: TK-10 renal
[22] = tested on: KM12 colon
[23] = tested on: KM20L2 colon
[24] = tested on: ACHN renal
[25] = tested on: SNB-75 CNS
[26] = tested on: DMS 273 small cell lung
[27] = tested on: SF-539 CNS
[28] = tested on: SN12C renal
[29] = tested on: UACC-62 melanoma
[30] = tested on: 786-0 renal
[31] = tested on: LXFL 529 NSCLC
[32] = tested on: SK-OV-3 ovarian
[33] = tested on: DLD-1 colon
[34] = tested on: OVCAR-3 ovarian
[35] = tested on: CAKI-1 renal
[36] = tested on: CCRF-CEM leukemia
[37] = tested on: SW-620 colon
[38] = tested on: RXF 393 renal
[39] = tested on: UO-31 renal
[40] = tested on: HL-60(TB) leukemia
[41] = tested on: OVCAR-8 ovarian
[42] = tested on: HCT-15 colon
[43] = tested on: OVCAR-4 ovarian
[44] = tested on: IGROV1 ovarian
[45] = tested on: SF-268 CNS
[46] = tested on: SNB-78 CNS
[47] = tested on: HT29 colon
[48] = tested on: XF 498 CNS
[49] = tested on: COLO 205 colon
[50] = tested on: A549 NSCLC
[51] = tested on: HOP-62 NSCLC
[52] = tested on: LOX IMVI melanoma
[53] = tested on: NCI-H23 lung
[54] = tested on: MALME-3M melanoma
[55] = tested on: NCI-H226 lung
[56] = tested on: SR leukemia
[57] = tested on: SF-295 CNS

CSC1C=C(C(C)C)CCC1(C)SC (stereo not given)
TGI [1]: 30.6 µM | TGI [2]: 36.9 µM | TGI [3]: 59.4 µM | TGI [4]: 40.9 µM | TGI [5]: 40 µM | TGI [6]: 40.4 µM | TGI [7]: 31.3 µM | TGI [8]: 31.2 µM | TGI [9]: 37.1 µM | TGI [10]: 31.6 µM | TGI [11]: 30.9 µM | TGI [12]: 30.5 µM | TGI [13]: 44.7 µM | TGI [14]: 29.4 µM | TGI [15]: 31.3 µM | TGI [16]: 34.2 µM | TGI [17]: 33.7 µM | TGI [18]: 32.8 µM | TGI [19]: 32 µM | TGI [20]: 30.9 µM | TGI [21]: 41.4 µM | TGI [22]: 27.7 µM | TGI [23]: 56.8 µM | TGI [24]: 32.6 µM | TGI [25]: 31.7 µM | TGI [26]: 33 µM | TGI [27]: 33.6 µM | TGI [28]: 30.6 µM | TGI [29]: 47.6 µM | TGI [30]: 31.7 µM | TGI [31]: 32.9 µM | TGI [32]: 39.3 µM | TGI [33]: 32.4 µM | TGI [34]: 25.2 µM | TGI [35]: 32.4 µM | TGI [36]: 57 µM | TGI [37]: 38 µM | TGI [38]: 29 µM | TGI [39]: 27.4 µM | TGI [40]: 27.8 µM | TGI [41]: 35.5 µM | TGI [42]: 39.9 µM | TGI [43]: 33.9 µM | TGI [44]: 35.5 µM | TGI [45]: 35.1 µM | TGI [46]: 32.3 µM | TGI [47]: 29.6 µM | TGI [48]: 33.8 µM | TGI [49]: 29.7 µM | TGI [50]: 78.4 µM | TGI [51]: 35.5 µM | TGI [52]: 32.5 µM | TGI [53]: 35.7 µM | TGI [54]: 26.1 µM | TGI [55]: 31.6 µM

Cn1cccc(C(=O)c2ccccc2)c1=O
TGI [1]: > 100 µM | TGI [2]: > 100 µM | TGI [3]: > 100 µM | TGI [4]: > 100 µM | TGI [5]: > 100 µM | TGI [56]: > 100 µM | TGI [7]: > 100 µM | TGI [8]: > 100 µM | TGI [9]: > 100 µM | TGI [10]: > 100 µM | TGI [11]: > 100 µM | TGI [12]: > 100 µM | TGI [13]: > 100 µM | TGI [14]: > 100 µM | TGI [15]: > 100 µM | TGI [16]: > 100 µM | TGI [17]: > 100 µM | TGI [18]: > 100 µM | TGI [19]: > 100 µM | TGI [20]: > 100 µM | TGI [21]: > 100 µM | TGI [22]: > 100 µM | TGI [23]: > 100 µM | TGI [24]: > 100 µM | TGI [25]: > 100 µM | TGI [26]: > 100 µM | TGI [27]: > 100 µM | TGI [28]: > 100 µM | TGI [29]: > 100 µM | TGI [30]: > 100 µM | TGI [31]: > 100 µM | TGI [32]: > 100 µM | TGI [33]: > 100 µM | TGI [57]: > 100 µM | TGI [34]: > 100 µM | TGI [35]: > 100 µM | TGI [36]: > 100 µM | TGI [37]: > 100 µM | TGI [38]: > 100 µM | TGI [39]: > 100 µM | TGI [40]: > 100 µM | TGI [41]: > 100 µM | TGI [42]: > 100 µM | TGI [43]: > 100 µM | TGI [44]: > 100 µM | TGI [45]: > 100 µM | TGI [46]: > 100 µM | TGI [47]: > 100 µM | TGI [48]: > 100 µM | TGI [49]: > 100 µM | TGI [50]: > 100 µM | TGI [51]: > 100 µM | TGI [52]: > 100 µM | TGI [53]: > 100 µM | TGI [54]: > 100 µM | TGI [55]: > 100 µM

C=CCN1C(=O)C(=O)N(CC=C)C(=O)C1=O
TGI [1]: > 100 µM | TGI [2]: > 100 µM | TGI [3]: > 100 µM | TGI [4]: > 100 µM | TGI [5]: > 100 µM | TGI [6]: > 100 µM | TGI [56]: > 100 µM | TGI [7]: > 100 µM | TGI [8]: > 100 µM | TGI [9]: > 100 µM | TGI [10]: > 100 µM | TGI [11]: > 100 µM | TGI [12]: > 100 µM | TGI [13]: > 100 µM | TGI [14]: > 100 µM | TGI [15]: > 100 µM | TGI [17]: > 100 µM | TGI [19]: > 100 µM | TGI [20]: > 100 µM | TGI [21]: > 100 µM | TGI [22]: > 100 µM | TGI [23]: > 100 µM | TGI [25]: > 100 µM | TGI [26]: > 100 µM | TGI [27]: > 100 µM | TGI [28]: > 100 µM | TGI [29]: > 100 µM | TGI [30]: > 100 µM | TGI [31]: > 100 µM | TGI [32]: > 100 µM | TGI [33]: > 100 µM | TGI [57]: > 100 µM | TGI [34]: > 100 µM | TGI [35]: > 100 µM | TGI [36]: > 100 µM | TGI [37]: > 100 µM | TGI [38]: > 100 µM | TGI [39]: > 100 µM | TGI [40]: > 100 µM | TGI [41]: > 100 µM | TGI [42]: > 100 µM | TGI [43]: > 100 µM | TGI [44]: > 100 µM | TGI [45]: > 100 µM | TGI [46]: > 100 µM | TGI [47]: > 100 µM | TGI [48]: > 100 µM | TGI [49]: > 100 µM | TGI [50]: > 100 µM | TGI [51]: > 100 µM | TGI [52]: > 100 µM | TGI [53]: > 100 µM | TGI [54]: > 100 µM | TGI [55]: > 100 µM
